Reference: ChEMBL document CHEMBL4251633, “Design, synthesis, biological evaluation and cocrystal structures with tubulin of chiral β-lactam bridged combretastatin A-4 analogues as potent antitumor agents” (Eur J Med Chem, 2018)
The source made the active and inactive calls. No cut-off for these calls is given here.

Experiments:
[1] = organism: Homo sapiens; assay: Disruption of microtubule structure in human SKOV3 cells assessed as decrease in density at 100 nM after 24 hrs by DAPI staining based immunofluorescence assay; assay type: cell-based
[2] = system: Mus musculus; assay: Toxicity in Balb/c nude mouse xenografted with human A2780 cells assessed as abnormality in spleen at 8 mg/kg, ip once in every 2 days measured after 14 days by H and E staining based assay; assay type: organism-based; conditions: in vivo, 336 h
[3] = system: Mus musculus; assay: Anti-vascular activity in Balb/c nude mouse assessed as inhibition of VEGF-induced capillary blood vessel formation using sc injected matrigel plug supplemented with 100 nM test compound mixed with VEGF and measured after 1 week by matrigel plug assay; assay type: functional, organism-based
[4] = Acute toxicity in ICR mouse assessed as survival rate at 200 mg/kg, ip measured on day 14 (reference value: 100%); assay type: organism-based; conditions: in vivo
[5] = system: HeLa; assay: Induction of apoptosis in human HeLa cells assessed as necrotic cells at 50 nM after 48 hrs by Annexin V-FITC/propidium iodide staining based flow cytometry (reference value: 0.9%); assay type: functional
[6] = system: HeLa; assay: Induction of apoptosis in human HeLa cells assessed as early apoptotic cells at 200 nM after 48 hrs by Annexin V-FITC/propidium iodide staining based flow cytometry (reference value: 0.7%); assay type: functional
[7] = system: HeLa; assay: Inhibition of alpha-tubulin polymerization in human HeLa cells assessed as increase in ratio of supernatant faction to pellet fraction at 500 nM after 6 hrs by Western blot analysis; assay type: cell-based
[8] = Acute toxicity in ICR mouse assessed as survival rate at 100 mg/kg, ip measured on day 14 (reference value: 100%); assay type: organism-based; conditions: in vivo
[9] = system: HeLa; assay: Upregulation of Bax protein expression in human HeLa cells after 48 hrs by Western blot analysis; assay type: functional, cell-based
[10] = system: HeLa; assay: Antiproliferative activity against human HeLa cells after 48 hrs by MTT assay; assay type: functional, cell-based
[11] = Acute toxicity in ICR mouse assessed as survival rate at 150 mg/kg, ip measured on day 14 (reference value: 100%); assay type: organism-based; conditions: in vivo
[12] = system: Mus musculus; assay: Acute toxicity in ICR mouse assessed as death at 100 to 275 mg/kg, ip measured after 5 to 14 days; assay type: organism-based; conditions: in vivo
[13] = system: HeLa; assay: Induction of apoptosis in human HeLa cells assessed as live cells at 100 nM after 48 hrs by Annexin V-FITC/propidium iodide staining based flow cytometry (reference value: 96.5%); assay type: functional
[14] = system: Mus musculus; assay: Acute toxicity in ICR mouse assessed as death at 100 mg/kg, ip measured after 2 days; assay type: organism-based; conditions: in vivo, 48 h
[15] = system: HeLa; assay: Upregulation of cleaved PARP1 protein expression in human HeLa cells after 48 hrs by Western blot analysis; assay type: functional, cell-based
[16] = system: HeLa; assay: Induction of apoptosis in human HeLa cells assessed as early apoptotic cells at 50 nM after 48 hrs by Annexin V-FITC/propidium iodide staining based flow cytometry (reference value: 0.7%); assay type: functional
[17] = system: HeLa; assay: Induction of apoptosis in human HeLa cells assessed as live cells at 200 nM after 48 hrs by Annexin V-FITC/propidium iodide staining based flow cytometry (reference value: 96.5%); assay type: functional
[18] = system: HeLa; assay: Induction of apoptosis in human HeLa cells after 48 hrs by Annexin V-FITC/propidium iodide staining based flow cytometry; assay type: functional, cell-based
[19] = system: HeLa; assay: Induction of apoptosis in human HeLa cells assessed as early apoptotic cells at 100 nM after 48 hrs by Annexin V-FITC/propidium iodide staining based flow cytometry (reference value: 0.7%); assay type: functional
[20] = system: A2780; assay: Antitumor activity against human A2780 cells xenografted in Balb/c nude mouse assessed as tumor weight inhibition at 8 mg/kg, ip once in every 2 days measured up to 14 days; assay type: functional, organism-based
[21] = system: Mus musculus; assay: Acute toxicity in ICR mouse assessed as death at 100 to 125 mg/kg, ip measured after 1 day; assay type: organism-based; conditions: in vivo, 24 h
[22] = system: HeLa; assay: Induction of apoptosis in human HeLa cells assessed as necrotic cells at 100 nM after 48 hrs by Annexin V-FITC/propidium iodide staining based flow cytometry (reference value: 0.9%); assay type: functional
[23] = system: HeLa; assay: Induction of apoptosis in human HeLa cells assessed as late apoptotic cells at 50 nM after 48 hrs by Annexin V-FITC/propidium iodide staining based flow cytometry (reference value: 2%); assay type: functional
[24] = system: A2780; assay: cells; conditions: Homo sapiens, A2780, 48 h
Description: Antiproliferative activity against human A2780 cells after 48 hrs by MTT assay

[25] = system: Mus musculus; assay: Toxicity in Balb/c nude mouse xenografted with human A2780 cells assessed as abnormality in liver at 8 mg/kg, ip once in every 2 days measured after 14 days by H and E staining based assay; assay type: organism-based; conditions: in vivo, 336 h
[26] = biological target: Mitotic checkpoint serine/threonine-protein kinase BUB1 beta (Homo sapiens) (UniProt O60566); assay: Induction of BubR1 hyperphosphorylation in human HeLa cells by Western blot analysis; assay type: cell-based
[27] = system: HeLa; assay: Induction of histone-H3 phosphorylation in human HeLa cells by Western blot analysis; assay type: cell-based
[28] = system: Mus musculus; assay: Acute toxicity in ICR mouse assessed as death at 100 to 200 mg/kg, ip measured after 4 days; assay type: organism-based; conditions: in vivo, 96 h
[29] = Acute toxicity in ICR mouse assessed as death administered ip measured up to 14 days; assay type: organism-based; conditions: in vivo
[30] = system: HeLa; assay: Induction of apoptosis in human HeLa cells assessed as late apoptotic cells at 200 nM after 48 hrs by Annexin V-FITC/propidium iodide staining based flow cytometry (reference value: 2%); assay type: functional
[31] = system: HeLa; assay: Cell cycle arrest in human HeLa cells assessed as accumulation at G2/M-phase at 25 to 50 nM after 24 hrs by propidium iodide staining based flow cytometry; assay type: functional
[32] = system: HeLa; assay: Cell cycle arrest in human HeLa cells assessed as accumulation at G2/M-phase at 50 nM after 24 hrs by propidium iodide staining based flow cytometry; assay type: functional
[33] = system: A2780; assay: Antitumor activity against human A2780 cells xenografted in Balb/c nude mouse assessed as induction of tumor necrosis at 8 mg/kg, ip once in every 2 days measured after 14 days by H and E staining based assay; assay type: functional, organism-based
[34] = system: HeLa; assay: Induction of apoptosis in human HeLa cells assessed as live cells at 50 nM after 48 hrs by Annexin V-FITC/propidium iodide staining based flow cytometry (reference value: 96.5%); assay type: functional
[35] = system: HUVEC; assay: Antiangiogenic activity against HUVEC assessed as disruption of capillary-like tube formation at 50 nM after 12 hrs by inverted microscopic method; assay type: functional, cell-based; conditions: Homo sapiens
[36] = (§1) Inhibition of pig brain tubulin polymerization measured every 1 min for 20 mins by spectrophotometric method; set-up: species or system Sus scrofa
[37] = organism: Sus scrofa; assay: as §1
[38] = system: Mus musculus; assay: Acute toxicity in ICR mouse assessed as death at 150 mg/kg, ip measured after 3 days; assay type: organism-based; conditions: in vivo, 72 h
[39] = system: Mus musculus; assay: Toxicity in Balb/c nude mouse xenografted with human A2780 cells assessed as abnormality in kidney at 8 mg/kg, ip once in every 2 days measured after 14 days by H and E staining based assay; assay type: organism-based; conditions: in vivo, 336 h
[40] = Growth inhibition of HOSEC at 1 uM after 48 hrs by MTT assay relative to control; conditions: human, HOSEC cells; read-out: GI
[41] = system: HeLa; assay: Upregulation of p53 protein expression in human HeLa cells after 48 hrs by Western blot analysis; assay type: functional, cell-based

Sequence of Mitotic checkpoint serine/threonine-protein kinase BUB1 beta (Homo sapiens) (O60566 whole entry): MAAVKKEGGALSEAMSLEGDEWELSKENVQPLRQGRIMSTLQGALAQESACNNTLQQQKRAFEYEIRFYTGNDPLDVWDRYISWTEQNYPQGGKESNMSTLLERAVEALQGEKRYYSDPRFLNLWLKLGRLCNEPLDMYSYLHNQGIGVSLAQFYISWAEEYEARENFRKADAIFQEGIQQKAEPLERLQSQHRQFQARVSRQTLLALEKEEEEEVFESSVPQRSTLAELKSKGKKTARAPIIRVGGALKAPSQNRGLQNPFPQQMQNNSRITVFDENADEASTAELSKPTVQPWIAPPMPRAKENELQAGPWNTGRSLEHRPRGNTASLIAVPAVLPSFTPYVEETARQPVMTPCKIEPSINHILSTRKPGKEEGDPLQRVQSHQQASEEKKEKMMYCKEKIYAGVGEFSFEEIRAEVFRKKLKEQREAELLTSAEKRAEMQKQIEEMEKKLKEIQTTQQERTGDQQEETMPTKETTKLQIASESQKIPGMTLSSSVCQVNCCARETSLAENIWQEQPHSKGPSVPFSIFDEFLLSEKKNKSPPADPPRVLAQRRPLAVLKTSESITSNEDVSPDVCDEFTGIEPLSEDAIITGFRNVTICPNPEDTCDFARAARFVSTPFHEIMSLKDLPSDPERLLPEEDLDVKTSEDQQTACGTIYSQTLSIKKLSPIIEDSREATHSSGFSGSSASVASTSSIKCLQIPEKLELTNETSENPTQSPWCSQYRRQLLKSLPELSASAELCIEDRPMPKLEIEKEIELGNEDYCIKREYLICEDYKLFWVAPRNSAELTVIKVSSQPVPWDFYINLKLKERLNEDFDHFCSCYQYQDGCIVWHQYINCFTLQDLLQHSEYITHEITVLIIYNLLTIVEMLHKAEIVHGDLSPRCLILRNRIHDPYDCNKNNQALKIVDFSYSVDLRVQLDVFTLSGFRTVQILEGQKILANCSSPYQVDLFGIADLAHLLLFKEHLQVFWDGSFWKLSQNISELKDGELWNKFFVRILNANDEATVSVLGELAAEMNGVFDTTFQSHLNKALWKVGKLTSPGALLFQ

Compound: COc1ccc([C@H]2[C@H](C)C(=O)N2c2cc(OC)c(OC)c(OC)c2)cc1O
- Activity [1]: Active
- Activity [2]: Non-Toxic
- inhibition [3]: Active
- survival at 14 day [4]: 30%
- Activity [5]: 5.3%
- Activity [6]: 37.5%
- tubulin polymerization inhibition (active/inactive) [7]: Active
- survival at 14 day [8]: 90%
- Activity [9]: Dose-dependent effect
- IC50 [10]: 1 nM
- survival at 14 day [11]: 40%
- Activity [12]: Non-Toxic
- Activity [13]: 27.3%
- Activity [14]: Non-Toxic
- Activity [15]: Dose-dependent effect
- Activity [16]: 29.3%
- Activity [17]: 21.6%
- Activity [18]: Dose-dependent effect
- Activity [19]: 35.2%
- inhibition [20]: Active
- Activity [21]: Non-Toxic
- Activity [22]: 7.5%
- Activity [23]: 23.4%
- IC50 [24]: 2 nM
- Activity [25]: Non-Toxic
- Activity [26]: Dose-dependent effect
- Activity [27]: Dose-dependent effect
- Activity [28]: Non-Toxic
- LD50 at 336 h [29]: 136 mg/kg
- Activity [30]: 33.8%
- Activity [31]: Active
- Activity [32]: 100%
- Activity [33]: Active
- Activity [34]: 42%
- Activity [35]: Active
- IC50 [36]: 1700 nM
- inhibition [37]: Dose-dependent effect
- Activity [38]: Non-Toxic
- Activity [39]: Non-Toxic
- inhibition at 48 h, 1 µM [40]: < 50%
- Activity [41]: Dose-dependent effect
